Source: article PMC6789487, “Iminosugars: Effects of Stereochemistry, Ring Size, and N-Substituents on Glucosidase Activities” (Pharmaceuticals, 2019)
Values joined by “and” are separate entries in the source; they are usually repeats but may differ in a detail not shown here. Equal values may be shown once. Read-outs that look alike come from different tables or passages of the source.

Experiments:
[1] = molecular target: T1, α-glucosidase (from Saccharomyces cerevisiae) (Saccharomyces cerevisiae, UniProt P53341); assay: Yeast α-glucosidase inhibition, p-nitrophenyl α-D-glucopyranoside substrate, 96-well plate; assay type: biochemical
T1 sequence (P53341 whole entry): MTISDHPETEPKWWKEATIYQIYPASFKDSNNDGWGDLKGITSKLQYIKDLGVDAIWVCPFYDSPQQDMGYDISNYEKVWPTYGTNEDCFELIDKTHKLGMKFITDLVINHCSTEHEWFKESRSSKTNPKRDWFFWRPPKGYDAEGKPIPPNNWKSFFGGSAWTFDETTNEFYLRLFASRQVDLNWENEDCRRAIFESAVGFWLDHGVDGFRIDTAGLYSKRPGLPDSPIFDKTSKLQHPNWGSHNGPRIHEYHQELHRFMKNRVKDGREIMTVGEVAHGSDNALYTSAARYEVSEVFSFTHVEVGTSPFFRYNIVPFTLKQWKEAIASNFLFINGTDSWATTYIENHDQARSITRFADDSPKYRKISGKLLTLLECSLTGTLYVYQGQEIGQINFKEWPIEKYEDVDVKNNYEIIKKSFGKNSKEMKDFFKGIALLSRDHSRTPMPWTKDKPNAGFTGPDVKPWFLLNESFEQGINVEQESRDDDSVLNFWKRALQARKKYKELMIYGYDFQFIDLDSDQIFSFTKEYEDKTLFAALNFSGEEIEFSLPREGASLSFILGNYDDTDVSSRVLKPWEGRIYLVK
Procedure: (§1) Biological assays: Yeast α-glucosidase (EC 3.2.1.20) and almond β-glucosidase (EC 3.2.1.21) activity was assessed using a 96-well plate assay. Assays contained 20 mM NaOAc at pH 6.8 (α-glucosidase) and pH 6.2 (β-glucosidase), 10 mM PIPES (piperazine-N,N′-bis(2-ethanesulfonic acid), 0.1 mM EDTA, α-glucosidase (5 μg/mL), β-glucosidase (6 μg/mL), and inhibitor (0.1–2 mM). Enzyme and inhibitor were equilibrated at 37 °C for 30 min. The reaction was initiated by the addition of p-nitrophenyl α-D-glucopyranoside (200 μM) or p-nitrophenyl β-D-glucopyranoside (200 μM), and then it was quenched with 100 μL of sodium carbonate 3.0 M after 25 min incubation at 37 °C. Assays were repeated in duplicate and data averaged.

[2] = molecular target: almond β-glucosidase (EC 3.2.1.21); assay: Almond β-glucosidase inhibition, p-nitrophenyl β-D-glucopyranoside substrate, 96-well plate; assay type: biochemical; details: β-Glucosidase from almonds; NI: no inhibition
Procedure: To broaden the scope of the analysis, β-glucosidase (almond) activity of the same set of compounds was conducted using the corresponding p-nitrophenyl β-D-glucopyranoside.
as §1

[3] = molecular target: T1, α-glucosidase (from Saccharomyces cerevisiae); assay: Yeast α-glucosidase inhibition, p-nitrophenyl α-D-glucopyranoside substrate, 96-well plate; assay type: biochemical; details: tested concentration 15–2000 µM
yeast α-glucosidase = details: at 1 mM; cited from earlier work
β-glucosidase = details: cited from earlier work; for % β-glucosidase inhibition: at 1 mM
[4] = tested on: Bacillus stearothermophilus α-glucosidase; set-up: method as in PMID 9113331; details: cited from earlier work; for % α-glucosidase inhibition: tested at 1 mM in Bacillus stearothermophilus
[5] = NI: no inhibition, read-out: Inhibition (µM) α-Glucosidase (IC50)
[6] = read-out: Inhibition (µM) α-Glucosidase (IC50), NI: no inhibition

IC50 [1, 5] | IC50 [2] | SMILES | also measured
> 2000 µM | 1716 ± 12.8 µM | C#CCN1C[C@@H](O)[C@@H](O)[C@H](O)[C@@H]1CO [26a, N-Propynyl-1,5-dideoxy-1,5-imino-L-gulitol] | –
> 2000 µM | > 2000 µM | C#CCN1C[C@@H](O)[C@@H](O)[C@H](O)[C@H](O)C1 [26b, N-Propynyl-1,6-dideoxy-1,6-imino-D-mannitol] | –
– | – | CCCCN1C[C@@H](O)[C@@H](O)[C@H](O)[C@@H]1CO [27a, N-Butyl-1,5-dideoxy-1,5-imino-L-gulitol] | IC50 [1, 6]: > 2000 µM
– | 184 µM and 185 µM | CCCCN1C[C@@H](O)[C@@H](O)[C@H](O)[C@H](O)C1 [27b, N-Butyl-1,6-dideoxy-1,6-imino-D-mannitol] | –
– | > 2000 µM | OCCN1C[C@@H](O)[C@@H](O)[C@H](O)[C@@H]1CO [28a, N-Hydroxyethyl-1,5-dideoxy-1,5-imino-L-gulitol] | IC50 [1, 6]: > 2000 µM
> 2000 µM | > 2000 µM | OCCN1C[C@@H](O)[C@@H](O)[C@H](O)[C@H](O)C1 [28b, N-Hydroxyethyl-1,6-imino-D-mannitol] | –
> 2000 µM | > 2000 µM | OC[C@H]1[C@@H](O)[C@H](O)[C@H](O)CN1CCc1ccccc1 [29a, N-Phenethyl-1,5-dideoxy-1,5-imino-L-gulitol] | –
– | – | CCCCN1C[C@H](O)[C@@H](O)[C@H](O)[C@H]1CO [40a, N-Butyl-1,5-dideoxy-1,5-imino-D-glucitol, reference compound] | IC50 [1, 6]: > 2000 µM; yeast α-glucosidase inhibition (in words) [3]: weak or no α-glucosidase inhibition
– | 4 ± 1.5 µM | OCCN1C[C@H](O)[C@@H](O)[C@H](O)[C@H]1CO [41a, N-Hydroxyethyl-1,5-dideoxy-1,5-imino-D-glucitol, reference compound] | IC50 ([1]; Inhibition (µM) α-Glucosidase (IC50), NI: no inhibition): 41 µM and 41.3 µM
138 µM and 139 µM | 4 ± 1.4 µM | OCCN1C[C@H](O)[C@@H](O)[C@H](O)[C@@H](O)C1 [41b, N-Hydroxyethyl-1,6-dideoxy-1,6-imino-L-iditol] | –
– | – | O[C@H]1[C@H](O)[C@H](O)CNC[C@H]1O [D-manno-azepane, 1,6-dideoxy-1,6-imino-D-mannitol] | % β-glucosidase inhibition (β-glucosidase): 1%; % α-glucosidase inhibition [4]: 55%
– | 33 µM and 33.1 µM | OC[C@H]1NC[C@H](O)[C@@H](O)[C@@H]1O [DNJ, 1-deoxynojirimycin, reference compound] | Ki (β-glucosidase): […]; Ki ([4]; Bacillus stearothermophilus α-glucosidase): 0.44 µM
– | – | OC[C@@H]1NC[C@@H](O)[C@@H](O)[C@@H]1O [nonsubstituted L-gulo-piperidine, 1-deoxy-L-gulo-nojirimycin] | % β-glucosidase inhibition (β-glucosidase): […]; % α-glucosidase inhibition [4]: 30%

SMILES | IC50 [1, 5] | IC50 [2] | also measured
O[C@H]1[C@H](O)[C@H](O)CN(CCc2ccccc2)C[C@H]1O [29b, N-Phenethyl-1,6-dideoxy-1,6-imino-D-mannitol] | > 2000 µM | > 2000 µM | –
C#CCN1C[C@H](O)[C@@H](O)[C@H](O)[C@H]1CO [39a, N-Propynyl-1,5-dideoxy-1,5-imino-D-glucitol] | > 2000 µM | 636 ± 8.5 µM | yeast α-glucosidase inhibition (in words) [3]: weak or no α-glucosidase inhibition
C#CCN1C[C@H](O)[C@@H](O)[C@H](O)[C@@H](O)C1 [39b, N-Propynyl-1,6-dideoxy-1,6-imino-L-iditol] | > 2000 µM | 3440 ± 70.6 µM | yeast α-glucosidase inhibition (in words) [3]: weak or no α-glucosidase inhibition
CCCCN1C[C@H](O)[C@@H](O)[C@H](O)[C@@H](O)C1 [40b, N-Butyl-1,6-dideoxy-1,6-imino-L-iditol] | > 2000 µM | 80 ± 4.9 µM | % inhibition, α-glucosidase (yeast α-glucosidase): 14%; yeast α-glucosidase inhibition (in words) [3]: weak or no α-glucosidase inhibition
